# Assay results published in patent US20110046058A1, “COMPOSITIONS FOR ENTERAL ABSORPTION AND SUSTAINED ACTION OF LEPTIN-RELATED PEPTIDES USEFUL IN THE TREATMENT OF OBESITY AND LEPTIN-MODULATED DISEASE” (AEGIS THERAPEUTICS LLC, priority 2009, published 2011).
# Read-outs that look alike come from different tables or passages of the source. Where a SMILES comes first, the peptide text is derived from it.
# Legend:
# [1] = NOAEL of alkylsaccharide (FAO/WHO report); conditions: per day, indefinitely
# Source text: (§1) Typically, an acceptable daily intake for humans is about 1% of the NOAEL, which translates to about 14-21 grams, or 14 million micrograms to 21 million micrograms, per day, indefinitely.
# [2] = in vivo
# Source text: as §1
# [3] = FAO/WHO report; cited from earlier work
# [4] = mouse, in vivo
# Procedure: (§2) Six week-old male Swiss Webster mice weighing approximately 30 g were obtained from Taconic Farms (Germantown, N.Y., USA). The animals were housed three per cage in polycarbonate cages fitted with stainless steel wire lids and air filters, and supported on ventilated racks (Thoren Caging Systems, Hazelton, Pa., USA) in the Albany Medical College Animal Resources Facility. The mice were maintained at a constant temperature (24° C.) with lights on from 07:00 to 19:00 h, and allowed food and water ad libitum until used for uptake studies.
# (§3) Following peptide administration the mice were transferred to separate cages for the designated time period.
# (§4) Five, 10, 20, 40, 60, or 120 min after peptide delivery, the mice were anesthetized with isoflurane (5%) and exsanguinated by cardiac puncture. The blood was collected in sterile nonheparinized plastic centrifuge tubes and allowed to stand at room temperature for 1 h. The clotted blood was rimmed from the walls of the tubes with sterile wooden applicator sticks.
# (§5) The coated plates were incubated overnight at 4° C. Unoccupied sites were blocked with 200 μL StartingBlock™ in PBS (Pierce Biotechnology Inc., Rockford, Ill., USA) for 2 h at room temperature. […] At the end of the incubation period, 100 μL of each antibody-bound standard or sample was added to the wells and incubated for 1 h at room temperature. HRP-conjugated goat-anti-rabbit IgG (Pierce Biotechnology Inc. Rockford, Ill., USA) was used as the secondary antibody. 100 μL was added to each well and incubated for 1 h at room temperature.
# [5] = mouse, in vivo, 1 mg
# Procedure: (§6) Six week-old male Swiss Webster mice weighing approximately 30 gm were maintained at a constant temperature (24 C) with lights on from 07:00 to 19:00 h, and allowed food and water ad libitum until used for uptake studies. […] For sc, im, and ip delivery, the peptide was dissolved in sterile phosphate buffered saline (PBS, pH 7.2) at a concentration of 1 mg/200 μL as described previously containing 0.18% tetradecyl-beta-D-maltoside. For oral gavage [D-Leu-4]OB3 was dissolved in 0.3% dodecyl-beta-D-maltoside reconstituted in PBS (pH 7.2) at a concentration of 1 mg/200 μL. At time zero (0), a single 200 μL sc, im, ip or oral dose of mouse [D-Leu-4]OB3 was given to each of six mice per time point. Following peptide administration, the mice were transferred to separate cages for the designated time period.
# (§7) Five, 10, 20, 40, 60, or 120 minutes after peptide delivery, the mice were anesthetized with isoflurane (5%) and exsanguinated by cardiac puncture. The blood was collected in sterile nonheparinized plastic centrifuge tubes and allowed to stand at room temperature for 1 h. The clotted blood was rimmed from the walls of the tubes with sterile wooden applicator sticks. Individual serum samples were prepared by centrifugation for 30 min at 2600×g in an Eppendorf™ 5702R, A-4-38 rotor (Eppendorf North America, Westbury, N.Y., USA), and stored frozen until assayed for mouse [D-Leu-4]OB3 content by competitive ELISA.
# (§8) The [D-Leu-4]OB3 competitive ELISA assay was carried out as follows. 96-well polystyrene plates (Pierce Biotechnology, Inc., Rockford, Ill., USA) were coated with 100 μL of a 5 ug/ml solution of BSA-conjugated mouse [D-Leu-4]OB3 (QED Bioscience, San Diego, Calif.) in carbonate-bicarbonate buffer (pH 9.4). The coated plates were incubated overnight at 4 C. Unoccupied sites were blocked with 200 μL StartingBlock™ in PBS (Pierce Biotechnology Inc., Rockford, Ill., USA) for 2 h at room temperature. Mouse [D-Leu-4]OB3 standards ranging from 5 to 10,000 ng/ml are prepared in PBS (pH 7.2). In a separate incubation, 100 μL of mouse [D-Leu-4]OB3 primary antibody raised in New Zealand White rabbits (QED Bioscience, San Diego, Calif.) and diluted to 1:5000 in StartingBlock™, or 100 μL of the primary antibody+50 μL of each standard or serum sample are added to 500 μL microcentrifuge tubes and incubated for 1 h at 37 C. At the end of the incubation period, 100 μL of each antibody-bound standard or sample were added to the wells and incubated for 1 h at room temperature. HRP-conjugated goat-anti-rabbit IgG (Pierce Biotechnology Inc, Rockford, Ill., USA) was used as the secondary antibody. 100 μL was added to each well and incubated for 1 h at room temperature. At the end of the incubation period, 100 μL of ABTS substrate (Pierce Biotechnology Inc, Rockford, Ill., USA) was added to each well and incubated for 30 minutes on a rotary rocker. Color development was stopped with 1% SDS. Absorbance was read at 405 nm with a Molecular Devices microplate reader (MDS Sciex, Concord, Ontario Canada). Each sample was assayed in triplicate. […] The relative bioavailability was determined by plotting the serum concentrations of mouse [D-Leu-4]OB3 vs. time following ip, sc, or im delivery using the graphics program SigmaPlot™ 8.0 (SPSS Science, Chicago, Ill., USA). The area under each curve (AUC) was calculated with a function of this program.
# [6] = mouse, in vivo; remark: listed apart in the source
# Procedure: as §2, §3, §4, §5
# [7] = mouse, in vivo; remark: listed apart in the source
# Procedure: as §6, §7, §8
compound,measurement,setting,value
sucrose dodecanoate,acceptable daily intake for humans (about 1% of the NOAEL),[1],14-21 grams
same,amount a 70 kilogram person can consume per day without any observable adverse effect,[2],1400-2100 grams
same,NOAEL,[3],20-30 grams/kilogram/day
CC(C)C[C@@H](NC(=O)[C@H](CO)NC(=O)[C@H](CS)NC(=O)[C@@H](N)CO)C(=O)N1CCC[C@H]1C(=O)N[C@@H](CCC(N)=O)C(=O)N[C@H](C(N)=O)[C@@H](C)O [mouse [D-Leu-4]OB3] (HELM PEPTIDE1{S.C.S.[dL].P.Q.T.[am]}$$$$V2.0; N-terminus assumed),CL1,[4],1.08 mL/min
same,CL2,[4],0.29 mL/min
same,Relative bioavailability,[4],4.0
same,kelim1,[4],0.0986 min⁻¹
same,kelim2,[4],0.0203 min⁻¹
same,Relative bioavailability,[4]; im,1.4
same,AUC,"[4]; im, 1 mg","1,481,060 ng/ml/min"
same,CL (plasma clearance),"[4]; im, 1 mg",0.68 mL/min
same,Vd (apparent volume of distribution),"[4]; im, 1 mg",29.4 mL
same,CL1 + CL2 (overall clearance),[4]; inhaled or intranasal,1.37 mL/min
same,Vd1,[4]; inhaled or intranasal,1.1 mL
same,Vd1 + Vd2 (overall volume of distribution),[4]; inhaled or intranasal,15.4 mL
same,Vd2,[4]; inhaled or intranasal,14.3 mL
same,Cmax2,"[4]; inhaled or intranasal, 1 mg","69,069 ng/ml"
same,Tmax2,"[4]; inhaled or intranasal, 1 mg",60 min
same,tmax1,"[4]; inhaled or intranasal, 1 mg",10 min
same,Relative bioavailability,[4]; ip,1.0
same,AUC,"[4]; ip, 1 mg","1,072,270 ng/ml/min"
same,CL (plasma clearance),"[4]; ip, 1 mg",0.93 mL/min
same,Vd (apparent volume of distribution),"[4]; ip, 1 mg",65.5 mL
same,Relative bioavailability,[4]; sc,1.1
same,AUC,"[4]; sc, 1 mg","1,182,498 ng/ml/min"
same,CL (plasma clearance),"[4]; sc, 1 mg",0.85 mL/min
same,Vd (apparent volume of distribution),"[4]; sc, 1 mg",42.9 mL
same,t1/2 (serum half-life),"[4]; sc, 1 mg",34.0 min
same,AUC,[5]; im,24700 ng·h/mL
same,AUC,[5]; ip,17900 ng·h/mL
same,AUC,[5]; po,9320 ng·h/mL
same,AUC,[5]; sc,19700 ng·h/mL
same,Cmax,"[6]; im, 1 mg",46600 ng/mL
same,Tmax,"[6]; im, 1 mg",5 min
same,AUC,"[6]; im, 1 mg, AUC",24700 ng·h/mL
same,half-life,"[6]; im, 1 mg, t1/2 (serum half-life)",48.8 min
same,AUC,"[6]; inhaled or intranasal, 1 mg, AUC1",15400 ng·h/mL
same,AUC,"[6]; inhaled or intranasal, 1 mg, AUC2",56900 ng·h/mL
same,half-life,"[6]; inhaled or intranasal, t1/2 1",7 min
same,half-life,"[6]; inhaled or intranasal, t1/2 1 + t1/2 2 (overall half-life)",41.1 min
same,half-life,"[6]; inhaled or intranasal, t1/2 2",34.1 min
same,Cmax,"[6]; ip, 1 mg",22500 ng/mL
same,Tmax,"[6]; ip, 1 mg",5 min
same,AUC,"[6]; ip, 1 mg, AUC",17900 ng·h/mL
same,half-life,"[6]; ip, 1 mg, t1/2 (serum half-life)",30 min
same,Cmax,"[6]; sc, 1 mg",35100 ng/mL
same,Tmax,"[6]; sc, 1 mg",5 min
same,AUC,"[6]; sc, 1 mg, AUC",19700 ng·h/mL
same,half-life,"[6]; sc, 1 mg, t1/2 (serum half-life)",35 min
same,Relative Oral Bioavailability Compared to Three Injection Modes (% of AUC achieved by each respective injection),[7],52.2% of IP AUC
same,Relative Oral Bioavailability Compared to Three Injection Modes (% of AUC achieved by each respective injection),[7]; po,37.8% of IM AUC
